According to PubChem BioAssay AID1626 (SRMLSC, 2009):

Tested on: M. tuberculosis H37Rv growth inhibition
Test: M. tuberculosis H37Rv growth inhibitors, H37Rv strain (AID 1626)
Conditions: for IC90: measured here: IC90 against H37Rv; for CC50: measured here: Vero cell cytotoxicity

| Structure (SMILES) | IC50 | IC90 | CC50 |
| --- | --- | --- | --- |
| CCCC(=O)OCCNc1cc(Sc2nc3ccccc3[nH]2)c2nonc2c1[N+](=O)[O-] | 68.1 µM | > 100 µM | 23.5 µM |
| C=C1C2(C(=O)Nc3ccc(SC(F)F)cc3)CCC(C2)C1(C)C (stereo not drawn) |  | > 100 µM |  |
| CCOC(=O)N1CCN(c2nc(N(c3ccccc3)c3ccccc3)nc(-n3ccnc3)n2)CC1 | 8.91 µM | 11.3 µM | > 40 µM |
| Nc1nc(CN2CCN(C(c3ccccc3)c3ccccc3)CC2)nc(Nc2ccccc2)n1 | 36.4 µM | > 100 µM | > 40 µM |
| O=[N+]([O-])c1ccc(COc2ccc(-c3[nH]ncc3-c3ccc(Cl)cc3)c(O)c2)cc1 | 23 µM | > 100 µM | > 40 µM |
| Nc1nc(-c2ccc(F)cc2)cs1 | 23.8 µM | > 100 µM |  |
| Cc1cccc(-n2cc(CN(C)Cc3nccn3C)c(-c3cccc(F)c3)n2)c1 | 7.43 µM | 12.1 µM | > 40 µM |
| CC(C)c1ccc(NC(=O)COc2ccc(C3SCCS3)cc2)cc1 |  | > 100 µM |  |
| Cc1cc(N2CCN(c3ccccc3)CC2)nc(-n2nc(C)cc2C)n1 | 8.84 µM | 47.3 µM | 18.3 µM |
| CCOC(=O)c1ccc(NC(=O)Nc2ncccc2C)cc1 |  |  | > 40 µM |
| COc1ccc(C(=O)OCCNC(=O)c2c(Cl)nc3ccccn23)cc1 | 5.08 µM | 15.8 µM |  |
| Brc1ccc(OCc2nc(-c3ccccn3)n[nH]2)cc1 |  |  | 10.6 µM |
| O=C(/C=C/c1ccc(Cl)cc1Cl)N1CCN(c2ccc([N+](=O)[O-])c(N3CCOCC3)c2)CC1 |  |  | > 40 µM |
| COc1c(C)cc(C(=O)C2CCCN(Cc3cccc(C)n3)C2)cc1C (stereo not drawn) | 18.6 µM | > 100 µM | > 40 µM |
| CCC1CCCCN1C(=O)COC(=O)c1cc2ccccc2cc1O (stereo not drawn) | 1.25 µM | 4.34 µM |  |
| C(=C\c1nccc2c1[nH]c1ccccc12)/c1ccccc1 | 8.41 µM | 11.3 µM | 29.4 µM |
| Fc1ccc(Oc2nc(-c3ccccn3)nc3ccccc23)cc1 | 1.96 µM | 11.2 µM | > 40 µM |
| Cc1cc(=O)oc2ccc(OC(=O)CC(C)C)cc12 |  | > 100 µM |  |
| CCOC(=O)c1c(C)n(-c2ccc(C)cc2)c2ccc(OCC(O)CNCCCO)cc12 (stereo not drawn) | 20.3 µM | 37.1 µM | 13 µM |
| Cc1cc([N+](=O)[O-])ccc1NC(=O)c1ccc(NC(=O)C(C)C)cc1 | 12.3 µM | > 100 µM |  |
| Nc1c2c(nc3ccn(Cc4ccccc4)c(=O)c13)CCC2 | 7.11 µM | 15.3 µM | > 40 µM |

| Structure (SMILES) | IC50 | IC90 | CC50 |
| --- | --- | --- | --- |
| Oc1c(Cl)cc(Cl)cc1/C=C/c1ccc2cccc(O)c2n1 | 3.06 µM | > 100 µM | 10.1 µM |
| CN(C)c1ccc(O)c2c1CC1CC3C(N(C)C)C(=O)C(C(N)=O)=C(O)[C@@]3(O)C(=O)C1=C2O (stereo partly drawn) | 3.33 µM | 7.59 µM | > 40 µM |
| CCCNC(=O)NC(=O)COc1ccc(-c2ccc(C#N)cc2)cc1 | 0.754 µM | > 100 µM |  |
| CN1CCN(c2nc(-c3ccccc3)nc(-c3ccc(F)cc3)c2C#N)CC1 | 23.9 µM | > 100 µM | > 40 µM |
| CCCCCCCCn1c2c(c(=N)c3ccccc31)CCC2 | 6.24 µM | 9.17 µM | 9.55 µM |
| Nc1nc(-c2cccc(Br)c2)cs1 | 23.8 µM | > 100 µM |  |
| CCOC(=O)c1ccc(NC(=O)CCOc2ccc(C)cc2)cc1 | 20.9 µM | > 100 µM |  |
| COc1cccc2c1C(=O)c1c(O)c3c(c(O)c1C2=O)C[C@@](O)(C(=O)CO)C[C@@H]3O[C@H]1C[C@H](N)[C@@H](O)[C@H](C)O1 | 14.9 µM | 26.4 µM | 7.47 µM |
| O=C(Nc1nc(-c2ccccn2)cs1)c1ncc(Cl)c(Cl)c1Cl | 1.45 µM | 5.3 µM | 31.7 µM |
| CCn1c(NC(=O)C2CCCCC2)nc2ccccc21 | 1.86 µM | > 100 µM | > 40 µM |
| Cc1ccc(CN=c2c([N+](=O)[O-])nn(-c3cccc(Cl)c3)n2O)cc1 | 2.8 µM | 2.94 µM |  |
| O=C(CSc1nc2ccccc2o1)NCC(=O)c1ccccc1 | 8.36 µM | 25.9 µM |  |
| COc1ccc(-c2cc(C(F)(F)F)n3ncc(C(=O)N4CCCCC4c4cccnc4)c3n2)cc1 (stereo not drawn) |  | > 100 µM |  |
| O=C(COC(=O)c1c2c(nc3ccccc13)/C(=C/c1cccc([N+](=O)[O-])c1)CCC2)NC1CCS(=O)(=O)C1 (stereo not drawn) | 6.99 µM | > 100 µM | 34 µM |
| COc1ccc(-n2c(C)nc3sc4c(c3c2=O)CCCC4)cc1 | 11.7 µM | 13.3 µM |  |
| O=C(/C=C/c1ccc2c(c1)OCO2)c1c(O)n(CCc2ccccc2)c(=O)[nH]c1=O | 6.87 µM | 9.99 µM | 27.4 µM |
| COc1cc(OC)c(-c2nn3c(C4CCCCC4)nnc3s2)cc1OC | 2.2 µM | 6.47 µM |  |
| Cc1ccc2nc(Cl)c(CNCc3ccccc3)cc2c1 | 5.64 µM | 14.1 µM |  |
| O=C(CSCC(=O)NC1CC1)Nc1ccc2ccccc2c1 | 5.37 µM | > 100 µM |  |
| O=C(CSc1ccccn1)Nc1ccc2ccccc2c1 | 8.69 µM | > 100 µM |  |
| CCn1ccnc1CN(C)Cc1cn(-c2ccc(C)cc2)nc1-c1cccc(C)c1 | 2.73 µM | 3.64 µM | > 40 µM |
